Source: US4529600A, “Pentadeuterioretinoids” (SRI International, priority 1982, dated 1985)

What was measured:
[1] = tested on: keratinization in hamster tracheal organ culture; assay: tracheal organ culture assay: reversal of keratinization in hamster tracheal organ culture; assay type: cell-based; conditions: 10 days in culture
Procedure: (§1) The ODC assay measures a compound's effect on the prevention of the induction of ODC. The tracheal organ culture assay measures a compound's ability to reverse keratinization. For comparison purposes retinoic acid was also tested by these assays.
The tracheal organ culture assay is carried out as follows. Tracheas are taken from hamsters that are in very early stages of vitamin A deficiency and placed in organ culture. At the time of culture, the animals are still gaining weight; the tracheal epithelium is generally low columnar or cuboidal, with only occasional patches of squamous metaplasia. Each trachea is opened from the larynx to the carina along the membranous dorsal wall and cultured in a serum-free medium (CMRL-1066; with crystalline bovine insulin, 0.1 μg/ml; hydrocortisone hemisuccinate, 0.1 μg/ml; glutamine, 2 mM; penicillin, 100 units/ml; and streptomycin,100 μg/ml, added). Cultures are gassed with 50% oxygen, 45% nitrogen, and 5% CO2. The culture dishes are rocked at 35.5-36.0 degrees to allow the tracheas contact with both gas and medium. All tracheas are grown in medium containing no retinoid for the first 3 days. At the end of 3 days, some tracheas are harvested; almost all of these tracheas have significant squamous metaplasia, and approximately 60% have keratinized lesions. The remaining tracheas are then divided into different groups which are treated with either: (1) retinoid dissolved in dimethylsulfoxide (final concentration of DMSO in culture medium is never greater than 0.1%) or (2) an equivalent amount of DMSO alone. Culture medium is changed three times a week, and all of the remaining tracheas are harvested at the end of 10 days in culture. Tracheas are fixed in 10% buffered formalin and embedded in paraffin. Cross sections of five micrometers are made through the mid-portion, stained with hematoxylin and eosin, and then scored with a microscope for the presence of keratin and keratohyaline granules, both of which are found in approximately 90% of control cultures that received no retinoid for the entire 10 day culture period.

ornithine decarboxylase = assay: ODC assay: inhibition of induction of ornithine decarboxylase by 12-O-tetradecanoylphorbol-13-acetate in mouse skin; assay type: in vivo, mouse (female Charles River CD-1); conditions: topical, 1 hour before TPA (17 nmol)
Procedure: as §1
The ODC assay is carried out as follows. Female Charles River CD-1 mice from Charles River Breeding Laboratories, Wilmington, Mass., are used (age 7 to 9 weeks). The dorsal hair of the mice is shaved 1 to 2 days before testing, and only mice showing no hair regrowth are used. A single dose of 12-O-tetradecanoylphorbol-13-acetate (TPA) (10.5 μg, 17 nmol) in 0.2 mL of acetone is applied topically to the back of each mouse. The test compound, at one of three dose levels (1.7, 17, and 170 nmol), dissolved in 0.2 mL of acetone is applied 1 hour before the TPA treatment to the test groups; the control group is treated with acetone alone. The mice are killed by cervical dislocation five hours after TPA treatment. Determinations are done in triplicate.
The epidermis is obtained from the sacrificed animals. To obtain sufficient material, the dorsal skins from 2 to b 3 mice in each treatment group are pooled. The depilatory agent Nudit® (Helena Rubinstein, New York) is applied to the shaved area of the skin; after 5 minutes, it is washed off thoroughly with cold tap water. […]
The supernatant fraction remaining after centrifugation of the homogenate at 10,000×g for 30 seconds at 0° C. is used for the enzyme assay. Enzyme activity is determined using the microassay for ODC as described by Verma and Boutwell to measure the release of ^14 CO2 from DL-[1-^14 C]-ornithine (58 mCi/mmol) after incubation with the 10,000×g supernatant. […]
Radioactivity is measured using a toluene-based scintillant (4 g of PPO and 50 mg of POPOP/L of toluene) in a Beckman LS-250 liquid scintillation counter. Enzyme activity is determined in triplicate and expressed as nanomoles of CO2 released in 30 minutes per milligram of protein. […] The protein concentrations of the epidermal extracts are determined by the Lowry procedure, using bovine serum albumin as the standard.

| SMILES | Reversal of Keratinization, Active Cultures (%) ([1]; 10^-9 M) | Reversal of Keratinization, Active/Total Cultures ([1]; 10^-9 M) | Reversal of Keratinization, Active Cultures (%) ([1]; 10^-10 M) | Reversal of Keratinization, Active/Total Cultures ([1]; 10^-10 M) | Inhibition of Induction of Ornithine Decarboxylase by 12-O-Tetradecanoylphorbol-13-acetate in Mouse Skin, % Inhibition of Control (ornithine decarboxylase; dose 1.7 nmol) | Inhibition of Induction of Ornithine Decarboxylase by 12-O-Tetradecanoylphorbol-13-acetate in Mouse Skin, % Inhibition of Control (ornithine decarboxylase; dose 17 nmol) [%] | Reversal of Keratinization, Active Cultures (%) ([1]; 10^-8 M) | Reversal of Keratinization, Active/Total Cultures ([1]; 10^-8 M) |
| --- | --- | --- | --- | --- | --- | --- | --- | --- |
| [2H]C([2H])([2H])C1=C(/C=C/C(C)=C/C=C/C(C)=C/C(=O)O)C(C)(C)CCC1([2H])[2H] [(E)-retinoic acid-4,4,18,18,18-d5] | 100 | 8/8 | 86 | 6/7 | 90% | 90 | – | – |
| CC1=C(/C=C/C(C)=C/C=C/C(C)=C/C(=O)O)C(C)(C)CCC1 [(E)-retinoic acid] | 88 | 419/474 | 52 | 134/256 | 87-91% | – | 100 | 236/236 |
